The source of these data is patent US5760016A, “Use of mono-3,6-anhydrocyclodextrins for solubilizing a hydrophobic compound and for controlling the purity of an enantiomer and process for the preparation of these cyclodextrins” (priority 1993, dated 1998).

The conditions of data set [1]: background; cited from earlier work.
Data set [2] can be described thus: Hemolysis of human erythrocytes by the cyclodextrin derivative. It is filed as cell-based. As to conditions: erythrocytes; 5 mmole/l, 0.4 ml of human erythrocyte suspension, pH 7.4, 30 min, 37° C.; read-out: hemolysis percentage.
The next data set has as its system human erythrocytes. The description is as above. The note with it: 50 mmole/l. Type of data set: cell-based.
A short description of another data set: physchem. The note with it: water.
A short description of data set [3]: Solubility in water of cyclodextrins.
Data set [4] can be described thus: Solubility of prednisolone in water, alone or in the presence of a cyclodextrin. Type of data set: physicochemical. Here is the method:
10 μmole of mono-3,6-anhydrocyclomaltoheptaose prepared in example 1 are dissolved in 1 ml of pure water (apyrogenic water for injections) and addition takes place of 5 μmole of prednisolone in the form of a 50 mmole/l concentrated solution in acetone. The acetone is eliminated under nitrogen bubbling and the solution lyophilized.
The residual solid, which contains 10 μmole of the cyclodextrin derivative and 5 μmole of prednisolone, is redissolved in the minimum of water at 25° C.

For data set [5] the following is noted: 25° C., without cyclodextrin; cited from earlier work.

Values after ≈ are worked out from the molar mass of the structure shown.

For the compound `COC[C@H]1O[C@@H]2O[C@H]3[C@H](O)[C@@H](OC)[C@@H](O[C@H]4[C@H](O)[C@@H](OC)[C@@H](O[C@H]5[C@H](O)[C@@H](OC)[C@@H](O[C@H]6[C@H](O)[C@@H](OC)[C@@H](O[C@H]7[C@H](O)[C@@H](OC)[C@@H](O[C@H]8[C@H](O)[C@@H](OC)[C@@H](O[C@H]1[C@H](O)[C@H]2OC)O[C@@H]8COC)O[C@@H]7COC)O[C@@H]6COC)O[C@@H]5COC)O[C@@H]4COC)O[C@@H]3COC` [2,6-dimethyl-β-cyclodextrin], in data set [1], the “solubilizing properties for hydrophobic organic compounds” value was “good properties of solubilizing hydrophobic, organic compounds”.
Take `OC[C@H]1O[C@@H]2O[C@H]3[C@H](O)[C@@H](O)[C@@H](O[C@H]4[C@H](O)[C@@H](O)[C@@H](O[C@H]5[C@@H]6OC[C@H]5O[C@H](O[C@H]5[C@H](O)[C@@H](O)[C@@H](O[C@H]7[C@H](O)[C@@H](O)[C@@H](O[C@H]8[C@H](O)[C@@H](O)[C@@H](O[C@H]1[C@H](O)[C@H]2O)O[C@@H]8CO)O[C@@H]7CO)O[C@@H]5CO)[C@@H]6O)O[C@@H]4CO)O[C@@H]3CO` [mono-3,6-anhydrocyclomaltoheptaose]: the hemolysis at 0.5 h, 5000 µM in data set [2] amounted to 0%. Further, the “hemolytic properties at much higher concentrations” value with human erythrocytes was “no hemolysis detectable”. Besides, the concentration in solution in the data set “physchem” (solubility) was 520 mg/mL (≈ 466 mM). Moreover, the “solubility in water relative to .chi. and γ-cyclodextrins” value in data set [3] (ratio to .chi. and γ-cyclodextrins) is reported as “at least twice”. In data set [3] (ratio to original cyclodextrin (18 g/l), 25° C.), the “solubility in water relative to the original cyclodextrin” value was around 30 times.
As to `C[C@]12C=CC(=O)C=C1CC[C@@H]1[C@@H]2[C@@H](O)C[C@@]2(C)[C@H]1CC[C@]2(O)C(=O)CO` [prednisolone], the solubility (commonly the dissolved amount per volume that the medium holds) in data set [4] (25° C., in the presence of mono-3,6-anhydrocyclomaltoheptaose at 200 mmole/l, read-out: maximum prednisolone solubility in water) came out at 100 mM; in data set [4] (prednisolone solubility in the presence of β-cyclodextrin, same conditions, with β-cyclodextrin), 9 mM. In data set [5], the “solubility in water of prednisolone” value is 0.25 mg/mL.
With `OC[C@H]1O[C@@H]2O[C@H]3[C@H](O)[C@@H](O)[C@@H](O[C@H]4[C@H](O)[C@@H](O)[C@@H](O[C@H]5[C@H](O)[C@@H](O)[C@@H](O[C@H]6[C@H](O)[C@@H](O)[C@@H](O[C@H]7[C@H](O)[C@@H](O)[C@@H](O[C@H]8[C@H](O)[C@@H](O)[C@@H](O[C@H]1[C@H](O)[C@H]2O)O[C@@H]8CO)O[C@@H]7CO)O[C@@H]6CO)O[C@@H]5CO)O[C@@H]4CO)O[C@@H]3CO` [β-cyclodextrin, cyclomaltoheptaose], the hemolysis at 0.5 h, 5000 µM in data set [2] was determined as 50%.
